Assay results reported in ChEMBL document CHEMBL3885861, “Open TG-GATES”.

Species: Rattus norvegicus
Test: Open TG-GATES - Regimen: Single
Format: toxicity, organism-based, Sprague-Dawley
Set-up: regimen Single, gender Male, age 6 weeks
Details: in vivo, po, route gavage; for Bas / Eos / Fbg / Hb / Ht / Lym / MCHC / MCV / Mono / Neu / RBC / Ret / WBC / Plat: tissue Blood; for KIDNEY_TOTAL: tissue Kidney; for LIVER: tissue Liver; for ALT / AST / BUN / CRE / Ca / Cl / DBIL / GLC / IP / K / LDH / Na / PL / RALB / TBIL / TC / TP / gamma-GTP: tissue Plasma
[1] = 0 mg/kg, 3 h, dose level Control
[2] = 0 mg/kg, 6 h, dose level Control
[3] = 0 mg/kg, 9 h, dose level Control
[4] = 0 mg/kg, 24 h, dose level Control

## C[C@@H]1C[C@H]2[C@@H]3CCC4=CC(=O)C=C[C@]4(C)[C@@]3(F)[C@@H](O)C[C@]2(C)[C@@]1(O)C(=O)CO [DEXAMETHASONE]
[1]
  TERMINAL_BW: 213.8 g
  Bas: 0%
  Eos: 1%
  Fbg: 235.6 mg/dL
  Hb: 13 g/dL
  Ht: 39.6%
  Lym: 74.6%
  MCHC: 32.7%
  MCV: 64.5 fL
  Mono: 7%
  Neu: 18%
  RBC: 615 x10_4/ul
  Ret: 8.3%
  WBC: 98.2 x10_2/uL
  KIDNEY_TOTAL: 0.6 g
  LIVER: 10.5 g
  ALT: 38.4 IU/L
  AST: 70.4 IU/L
  BUN: 11.2 mg/dL
  CRE: 0.4 mg/dL
  Ca: 10.9 mg/dL
  Cl: 103.4 meq/L
  DBIL: 0.012 mg/dL
  GLC: 193.2 mg/dL
  IP: 9.8 mg/dL
  K: 4.1 meq/L
  LDH: 79.4 IU/L
  Na: 140.8 meq/L
  PL: 140.6 mg/dL
  RALB: 3.7 g/dL
  TBIL: 0.044 mg/dL
  TC: 79 mg/dL
  TP: 5.3 g/dL
  gamma-GTP: 0.8 IU/L
[2]
  TERMINAL_BW: 209.7 g
  Bas: 0%
  Eos: 0.6%
  Fbg: 234.6 mg/dL
  Hb: 13.3 g/dL
  Ht: 40.4%
  Lym: 80.6%
  MCHC: 32.9%
  MCV: 64.6 fL
  Mono: 4.4%
  Plat: 118.9 x10_4/uL
  RBC: 627.4 x10_4/ul
  Ret: 7.5%
  WBC: 103.8 x10_2/uL
  KIDNEY_TOTAL: 0.7 g
  LIVER: 9.7 g
  ALT: 34.2 IU/L
  AST: 65.2 IU/L
  BUN: 10.2 mg/dL
  CRE: 0.4 mg/dL
  Ca: 11 mg/dL
  Cl: 103.8 meq/L
  DBIL: 0.014 mg/dL
  GLC: 164.8 mg/dL
  IP: 9.5 mg/dL
  K: 4.3 meq/L
  LDH: 74.2 IU/L
  Na: 140.2 meq/L
  PL: 149.6 mg/dL
  RALB: 3.9 g/dL
  TBIL: 0.06 mg/dL
  TC: 84.8 mg/dL
  TP: 5.6 g/dL
  gamma-GTP: 0 IU/L
[3]
  TERMINAL_BW: 215.1 g
  Bas: 0%
  Eos: 1%
  Fbg: 233.2 mg/dL
  Hb: 13.2 g/dL
  Ht: 39.9%
  Lym: 73.2%
  MCHC: 33%
  MCV: 63.7 fL
  Mono: 7%
  Neu: 19%
  Plat: 125.1 x10_4/uL
  RBC: 626.8 x10_4/ul
  Ret: 7.8%
  WBC: 104.7 x10_2/uL
  KIDNEY_TOTAL: 0.7 g
  LIVER: 9.4 g
  ALT: 30.6 IU/L
  AST: 59.4 IU/L
  BUN: 11 mg/dL
  CRE: 0.3 mg/dL
  Ca: 10.5 mg/dL
  Cl: 104 meq/L
  DBIL: 0.01 mg/dL
  GLC: 171.4 mg/dL
  IP: 10.1 mg/dL
  K: 4.4 meq/L
  LDH: 80.4 IU/L
  Na: 140.8 meq/L
  PL: 141.8 mg/dL
  RALB: 3.8 g/dL
  TBIL: 0.046 mg/dL
  TC: 82.8 mg/dL
  TP: 5.5 g/dL
  gamma-GTP: 0.8 IU/L
[4]
  TERMINAL_BW: 229.3 g
  Bas: 0%
  Eos: 1%
  Fbg: 239.6 mg/dL
  Hb: 13.2 g/dL
  Ht: 40.1%
  Lym: 73.4%
  MCHC: 33%
  MCV: 65.6 fL
  Mono: 10.2%
  Neu: 15.6%
  Plat: 124.7 x10_4/uL
  RBC: 611.2 x10_4/ul
  Ret: 7.6%
  WBC: 107 x10_2/uL
  KIDNEY_TOTAL: 0.7 g
  LIVER: 11.3 g
  ALT: 40.6 IU/L
  AST: 67.2 IU/L
  BUN: 15.8 mg/dL
  CRE: 0.4 mg/dL
  Ca: 10.9 mg/dL
  Cl: 103 meq/L
  DBIL: 0.014 mg/dL
  GLC: 192.6 mg/dL
  IP: 8 mg/dL
  K: 4.4 meq/L
  LDH: 89.8 IU/L
  Na: 140 meq/L
  PL: 172.2 mg/dL
  RALB: 3.9 g/dL
  TBIL: 0.04 mg/dL
  TC: 95.4 mg/dL
  TP: 5.7 g/dL
  gamma-GTP: 0 IU/L
1 mg/kg, 3 h, dose level Low
  TERMINAL_BW: 220.4 g
  Bas: 0%
  Eos: 0.4%
  Fbg: 254 mg/dL
  Hb: 13.2 g/dL
  Ht: 40.3%
  Lym: 67%
  MCHC: 32.7%
  MCV: 64 fL
  Mono: 3.4%
  Neu: 29.2%
  Plat: 115.4 x10_4/uL
  RBC: 630 x10_4/ul
  Ret: 8.3%
  WBC: 45.1 x10_2/uL
  KIDNEY_TOTAL: 0.7 g
  LIVER: 11.2 g
  ALT: 43.2 IU/L
  AST: 72 IU/L
  BUN: 17 mg/dL
  CRE: 0.4 mg/dL
  Ca: 11.2 mg/dL
  Cl: 102.2 meq/L
  DBIL: 0.01 mg/dL
  GLC: 192.6 mg/dL
  IP: 12 mg/dL
  K: 4 meq/L
  LDH: 100.6 IU/L
  Na: 142.2 meq/L
  PL: 172 mg/dL
  RALB: 4.3 g/dL
  TBIL: 0.042 mg/dL
  TC: 102 mg/dL
  TP: 6.2 g/dL
  gamma-GTP: 1 IU/L
1 mg/kg, 6 h, dose level Low
  TERMINAL_BW: 204.4 g
  Bas: 0%
  Eos: 0.2%
  Fbg: 250.2 mg/dL
  Hb: 13.1 g/dL
  Ht: 40.4%
  Lym: 59%
  MCHC: 32.6%
  MCV: 64.5 fL
  Mono: 3.2%
  Neu: 37.2%
  Plat: 113.5 x10_4/uL
  RBC: 627 x10_4/ul
  Ret: 6.5%
  WBC: 28.2 x10_2/uL
  KIDNEY_TOTAL: 0.5 g
  LIVER: 10.8 g
  ALT: 39 IU/L
  AST: 73.8 IU/L
  BUN: 17.4 mg/dL
  CRE: 0.4 mg/dL
  Ca: 10.9 mg/dL
  Cl: 102.8 meq/L
  DBIL: 0.008 mg/dL
  GLC: 215.8 mg/dL
  IP: 8.2 mg/dL
  K: 4.3 meq/L
  LDH: 91.4 IU/L
  Na: 138.6 meq/L
  PL: 179.4 mg/dL
  RALB: 4.4 g/dL
  TBIL: 0.038 mg/dL
  TC: 124.4 mg/dL
  TP: 6.3 g/dL
  gamma-GTP: 0 IU/L
1 mg/kg, 9 h, dose level Low
  TERMINAL_BW: 198.1 g
  Bas: 0%
  Eos: 0.2%
  Fbg: 263.4 mg/dL
  Hb: 13.4 g/dL
  Ht: 40.9%
  Lym: 55.8%
  MCHC: 32.7%
  MCV: 64.7 fL
  Mono: 1.4%
  Neu: 42.4%
  Plat: 127.4 x10_4/uL
  RBC: 633 x10_4/ul
  Ret: 7.3%
  WBC: 28.3 x10_2/uL
  KIDNEY_TOTAL: 0.5 g
  LIVER: 10.7 g
  ALT: 38.8 IU/L
  AST: 76.6 IU/L
  BUN: 19.2 mg/dL
  CRE: 0.4 mg/dL
  Ca: 10.6 mg/dL
  Cl: 102 meq/L
  DBIL: 0.006 mg/dL
  GLC: 217 mg/dL
  IP: 7.8 mg/dL
  K: 4.4 meq/L
  LDH: 96.2 IU/L
  Na: 138 meq/L
  PL: 181.6 mg/dL
  RALB: 4.7 g/dL
  TBIL: 0.038 mg/dL
  TC: 126 mg/dL
  TP: 6.8 g/dL
  gamma-GTP: 0.8 IU/L
1 mg/kg, 24 h, dose level Low
  TERMINAL_BW: 210.9 g
  Bas: 0%
  Eos: 0.8%
  Fbg: 239.6 mg/dL
  Hb: 13.8 g/dL
  Ht: 41.6%
  Lym: 61.4%
  MCHC: 33.1%
  MCV: 64.9 fL
  Mono: 4.8%
  Neu: 33%
  Plat: 122.7 x10_4/uL
  RBC: 642.2 x10_4/ul
  Ret: 5.8%
  WBC: 73.8 x10_2/uL
  KIDNEY_TOTAL: 0.5 g
  LIVER: 12 g
  ALT: 35.4 IU/L
  AST: 79.8 IU/L
  BUN: 16.4 mg/dL
  CRE: 0.4 mg/dL
  Ca: 10.9 mg/dL
  Cl: 99.8 meq/L
  DBIL: 0.016 mg/dL
  GLC: 191.8 mg/dL
  IP: 8 mg/dL
  K: 4.9 meq/L
  LDH: 110.2 IU/L
  Na: 139.2 meq/L
  PL: 219.2 mg/dL
  RALB: 4.6 g/dL
  TBIL: 0.046 mg/dL
  TC: 104.2 mg/dL
  TP: 6.4 g/dL
  gamma-GTP: 0 IU/L
